Assay: AAPH-induced oxidative stress of aqueous polysorbate 20 solution, PEG-6-laurate oxidation marker by LC-MS P6L
Assay type: physicochemical
Settings: 1.5 mM AAPH
Method: Specifically, oxidative stress is applied to the aqueous polysorbate 20 solution using 1.5 mM 2,2′-azobis-2-methyl-propanimidamide, dihydrochloride (AAPH). The details of the sample preparation are explained in the experimental section under chapter “1.1 Materials”, point “c) Sample preparation of artificially stressed polysorbate 20”.
1.5 mM 2,2′-azobis-2-methyl-propanimidamide, dihydrochloride (AAPH) was added to a 0.040 mg/ml aqueous polysorbate 20 solution. The polysorbate 20 solution was stressed for 40 h at 50° C.
1.5 mM 2,2′-azobis-2-methyl-propanimidamide, dihydrochloride (AAPH) was added to a 0.040 mg/ml aqueous polysorbate 20 solution. The polysorbate 20 solution was stressed for 35 h at 50° C. After 0, 1, 3, 8, 12, 24 and 35 h samples were taken from the solution and immediately frozen at −20° C. in order to stop the degradation at each time point. […]
The separated species were then ionized with heated electrospray ionization (HESI) source (Ion Max Ion source with HESI probe, Thermo Fisher Scientific). […] Ions generated were detected in the mass spectrometer (LTQ, Thermo Fisher Scientific). […] PEG-6-laurate was evaluated by generating extracted ion chromatograms (EIC's) out of the full scan data to get peak areas of selected compounds using LCquan™ (Software for quantitative analysis of liquid chromatography).

increase of peak eluting at about 18.4 min, AAPH-stressed vs unstressed sample (m/z about 227 amu, 40 h at 50° C.): approximately 3.4 fold
Substance: polyethylene glycol-6-laurate
relative peak area of polyethylene glycol-6-laurate over stress time (reference T0, 50° C., 0-35 h): increase up to the sampling time point T4 (12 h)
